# According to patent US4277472A, “3,6-Disubstituted-5,7-(lower alkano)-5,6,7,8-tetrahydropyrido(4,3-C)pyridazines; their intermediates, preparation, antihypertensive use and compositions” (Byk Gulden Lomberg Chemische Fabrik GmbH, priority 1978, dated 1981):
# Tests used:
# [1] = test system: blood pressure of genetically-hypertensive rats; assay: antihypertensive effect in awake genetically-hypertensive rats, oral, once daily on two consecutive days; format: in vivo, rat (Kyoto strain); details: for relation between percentage change of the blood pressure (BP) and the applied dose / Th. E. (therapeutic effectiveness) [Serial No. 3 = 1.0]: 24-hour value of the 2nd day; for relation between percentage change of the blood pressure (BP) and the applied dose: dose in μmole/kg; for Th. E. (therapeutic effectiveness) [Serial No. 3 = 1.0]: relative to hydralazine = 1.0
# Procedure: In order to determine the anti-hypertensive effect, the compounds or mixtures are administered once daily by means of an oesophageal sound in the stated doses on two consecutive days to, in each case, 8 rats (Kyoto strain) with genetically-caused hypertension. The blood pressure was measured in each case 6 and 24 hours after administration of the substance.
# (§1) The measurement of the systolic blood pressure is effected with the aid of an inflatable cuff which is placed around the tail root and on which cuff there are arranged distally annularly 3 piezo-electric crystals (at a distance of 120°) for registering the pulse waves. The determination of the blood pressure is effected through inflation of the cuff and graphic recording of the pulse amplitude [analogously to H. Friebel and E. Vreden, Arch. exper. Path. u. Pharmakol., 232, 419 (1958)]. The animals were kept in an ambience of, and the experiments were carried out at from 22° to 24° C. and from 50 to 60 percent atmospheric humidity. In order to accustom the animals to the measuring process, a measurement was effected on the animals in each case 2 to 3 times daily for three days. For this purpose, as in the subsequent experiments, the rats were put into tunnel-shaped wire cages; one narrow side of the cages is slidable, the other has an opening for taking the tail through. In order to ensure a better blood flow through the tail artery during the measurement, the tails are irradiated for from 5 to 10 minutes with a red light lamp (150 watts) (distance: animal-lamp=50 cm). The air temperature immediately ambient to the tail is from 30° to 33° C. The body of the animals is covered and thus protected from direct irradiation.
# (§2) Table I reproduces for the representatives of the compounds according to the invention the percentage lowering of the blood pressure after oral administration in the rat and the lethal effect after oral administration in the mouse.
# % Change of blood pressure (BP) in genetically-hypertensive rats after
# single daily application per os on two consecutive days (N = 8/dose)
# [2] = acute oral toxicity, LD50, mouse; parameters: species or system mouse (NMRI, female); details: in vivo, per os, single administration, mice, N = 5/dose, 14 days observation
# Procedure: The toxicity investigations were carried out on female NMRI mice (body weight from 22 to 26 g). The animals (5 animals per dose) receive food and water ad libitum. Different doses of the substances are administered orally. The duration of observation is 14 days. The LD50, i.e. the dose at which 50 percent of the animals die, is determined graphically from the dose effect curve.
# as §2
# and toxicity (per os; LD50) in mice (N = 5/dose)
# [3] = test system: blood pressure of genetically-hypertensive rats; assay: lowering of blood pressure of genetically-hypertensive rats, oral, once daily on 10 consecutive days; format: in vivo, rat (Kyoto strain); details: 6 h after application
# Procedure: as §1
# In Table III there is represented the lowering of the blood pressure of genetically-hypertensive rats in the case of oral application of 3-hydrazino-5,7-propano-5,6,7,8-tetrahydro-6-pyrido[4,3-c]pyridazine carboxylic acid ethyl ester fumarate. In each case 8 animals received the stated dose once daily on 10 consecutive days.
# Lowering of the blood pressure of genetically-hypertensive rats
# (in mm Hg) in the case of administration of different doses of No. 4
# (in mg/kg rat), measured on 10 consecutive days (6 hours after
# application in each case).
# Doses: a = 1.25 mg/kg; b = 2.5 mg/kg; c = 5.0 mg/kg; d = 10.0 mg/kg.
# [4] = 5 mg/kg per os on 2nd day (half of original dose)
# [5] = 5 mg/kg per os on 2nd day (half of original dose), 24 h
structure (smiles),measurement,setting,value
"CCOC(=O)N1C2CCCC1c1cc(NN)nnc1C2 (stereo not shown) [3-hydrazino-5,7-propano-5,6,7,8-tetrahydro-6-pyrido[4,3-c]pyridazine carboxylic acid ethyl ester]","anti-hypertensive effectiveness and duration of action, in words","[1]; awake genetically-hypertensive rats, compared with hydralazine and known compounds",considerably higher anti-hypertensive effectiveness and longer duration of action than hydralazine
"CCOC(=O)N1CCc2nnc(NN)cc2C1 [Serial No. 1, 3-hydrazino-5,6,7,8-tetrahydro-6-pyrido[4,3-c]pyridazine carboxylic acid ethyl ester, reference compound]","BP (% change), 2nd day, 6 h",[1]; [4],-17.5%
same,"BP (% change), 1st day, 6 h",[1]; 10 mg/kg per os,-24.5%
same,"BP (% change), 1st day, 24 h","[1]; 10 mg/kg per os, 24 h",-6.0%
same,relation between percentage change of the blood pressure (BP) and the applied dose,[1],0.404
same,"BP (% change) 2nd day, 24 h","[1]; Table II, dose 21.05 μmole/kg",-8.5%
same,Th. E. (therapeutic effectiveness) [Serial No. 3 = 1.0],[1],8.3
same,LD50 at 336 h,[2],340 mg/kg
"CCOC(=O)N1CCc2nnc(NN)c(C)c2C1.Cl [Serial No. 2, 3-hydrazino-4-methyl-5,6,7,8-tetrahydro-6-pyrido[4,3-c]pyridazine carboxylic acid ethyl ester hydrochloride, reference compound]","BP (% change), 1st day, 6 h",[1]; 20 mg/kg per os,-4.7%
same,"BP (% change), 1st day, 24 h","[1]; 20 mg/kg per os, 24 h",-1.0%
same,"BP (% change), 2nd day, 6 h","[1]; 20 mg/kg per os, 2nd day",-4.7%
same,"BP (% change) 2nd day, 24 h","[1]; 20 mg/kg per os, 2nd day, 24 h",-3.7%
same,relation between percentage change of the blood pressure (BP) and the applied dose,[1],0.046
same,"BP (% change) 2nd day, 24 h","[1]; Table II, dose 79.6 μmole/kg",-3.7%
same,Th. E. (therapeutic effectiveness) [Serial No. 3 = 1.0],[1],0.9
"NNc1nncc2ccccc12 [Serial No. 3, 1-hydrazinophthalazine, reference compound]","BP (% change), 1st day, 6 h",[1]; 20 mg/kg per os,-10.7%
same,"BP (% change), 1st day, 24 h","[1]; 20 mg/kg per os, 24 h",-1.5%
same,"BP (% change), 2nd day, 6 h","[1]; 20 mg/kg per os, 2nd day",-11.8%
same,"BP (% change) 2nd day, 24 h","[1]; 20 mg/kg per os, 2nd day, 24 h",-6.1%
same,relation between percentage change of the blood pressure (BP) and the applied dose,[1],0.0488
same,"BP (% change) 2nd day, 24 h","[1]; Table II, dose 125.0 μmole/kg",-6.1%
same,Th. E. (therapeutic effectiveness) [Serial No. 3 = 1.0],[1],1.0
"CCOC(=O)N1C2CCCC1c1cc(NN)nnc1C2.O=C(O)/C=C/C(=O)O (stereo not shown) [Serial No. 4, 3-hydrazino-5,7-propano-5,6,7,8-tetrahydro-6-pyrido[4,3-c]pyridazine carboxylic acid ethyl ester fumarate]","BP (% change), 1st day, 6 h",[1]; 2.5 mg/kg per os,-9.0%
same,"BP (% change), 1st day, 24 h","[1]; 2.5 mg/kg per os, 24 h",-11.8%
same,"BP (% change), 2nd day, 6 h","[1]; 2.5 mg/kg per os, 2nd day",-15.9%
same,"BP (% change) 2nd day, 24 h","[1]; 2.5 mg/kg per os, 2nd day, 24 h",-17.1%
same,relation between percentage change of the blood pressure (BP) and the applied dose,[1],1.90
same,"BP (% change) 2nd day, 24 h","[1]; Table II, dose 9.0 μmole/kg",-17.1%
same,Th. E. (therapeutic effectiveness) [Serial No. 3 = 1.0],[1],38.9
same,Lowering of the blood pressure,"[3]; day 1, a = 1.25 mg/kg oral",25.0 mm Hg
same,Lowering of the blood pressure,"[3]; day 1, b = 2.5 mg/kg oral",35.0 mm Hg
same,Lowering of the blood pressure,"[3]; day 1, c = 5.0 mg/kg oral",48.0 mm Hg
same,Lowering of the blood pressure,"[3]; day 1, d = 10.0 mg/kg oral",58.0 mm Hg
same,Lowering of the blood pressure,"[3]; day 2, a = 1.25 mg/kg oral",14.0 mm Hg
same,Lowering of the blood pressure,"[3]; day 2, b = 2.5 mg/kg oral",59.0 mm Hg
same,Lowering of the blood pressure,"[3]; day 2, c = 5.0 mg/kg oral",67.0 mm Hg
same,Lowering of the blood pressure,"[3]; day 2, d = 10.0 mg/kg oral",77.5 mm Hg
same,Lowering of the blood pressure,"[3]; day 3, a = 1.25 mg/kg oral",20.0 mm Hg
same,Lowering of the blood pressure,"[3]; day 3, b = 2.5 mg/kg oral",44.0 mm Hg
same,Lowering of the blood pressure,"[3]; day 3, c = 5.0 mg/kg oral",53.0 mm Hg
same,Lowering of the blood pressure,"[3]; day 3, d = 10.0 mg/kg oral",66.0 mm Hg
same,Lowering of the blood pressure,"[3]; day 4, a = 1.25 mg/kg oral",21.0 mm Hg
same,Lowering of the blood pressure,"[3]; day 4, b = 2.5 mg/kg oral",67.0 mm Hg
same,Lowering of the blood pressure,"[3]; day 4, c = 5.0 mg/kg oral",72.0 mm Hg
same,Lowering of the blood pressure,"[3]; day 4, d = 10.0 mg/kg oral",74.0 mm Hg
same,Lowering of the blood pressure,"[3]; day 7, a = 1.25 mg/kg oral",27.0 mm Hg
same,Lowering of the blood pressure,"[3]; day 7, b = 2.5 mg/kg oral",53.0 mm Hg
same,Lowering of the blood pressure,"[3]; day 7, c = 5.0 mg/kg oral",59.0 mm Hg
same,Lowering of the blood pressure,"[3]; day 7, d = 10.0 mg/kg oral",69.0 mm Hg
same,Lowering of the blood pressure,"[3]; day 8, a = 1.25 mg/kg oral",21.0 mm Hg
same,Lowering of the blood pressure,"[3]; day 8, b = 2.5 mg/kg oral",66.0 mm Hg
same,Lowering of the blood pressure,"[3]; day 8, c = 5.0 mg/kg oral",67.0 mm Hg
same,Lowering of the blood pressure,"[3]; day 8, d = 10.0 mg/kg oral",66.0 mm Hg
same,Lowering of the blood pressure,"[3]; day 9, b = 2.5 mg/kg oral",64.0 mm Hg
same,Lowering of the blood pressure,"[3]; day 9, c = 5.0 mg/kg oral",63.0 mm Hg
same,Lowering of the blood pressure,"[3]; day 9, d = 10.0 mg/kg oral",61.0 mm Hg
same,Lowering of the blood pressure,"[3]; day 10, b = 2.5 mg/kg oral",71.0 mm Hg
same,Lowering of the blood pressure,"[3]; day 10, c = 5.0 mg/kg oral",66.0 mm Hg
same,Lowering of the blood pressure,"[3]; day 10, d = 10.0 mg/kg oral",63.0 mm Hg
same,LD50 at 336 h,[2],400 mg/kg
"CC(C)=NNc1cc2c(nn1)CC1CCCC2N1C(=O)c1ccccc1 (stereo not shown) [Serial No. 5, 6-benzoyl-3-isopropylidenehydrazino-5,7-propano-5,6,7,8-tetrahydropyrido[4,3-c]pyridazine]","BP (% change), 2nd day, 6 h",[1]; [4],-15.2%
same,"BP (% change) 2nd day, 24 h",[1]; [5],-12.8%
same,"BP (% change), 1st day, 6 h",[1]; 10 mg/kg per os,-20.1%
same,"BP (% change), 1st day, 24 h","[1]; 10 mg/kg per os, 24 h",-4.4%
same,relation between percentage change of the blood pressure (BP) and the applied dose,[1],0.87
same,"BP (% change) 2nd day, 24 h","[1]; Table II, dose 14.3 μmole/kg",-12.8%
same,Th. E. (therapeutic effectiveness) [Serial No. 3 = 1.0],[1],17.8
same,LD50 at 336 h,[2],510 mg/kg
"CCOC(=O)N1C2CCC1c1cc(NN=C(C)C)nnc1C2 (stereo not shown) [Serial No. 6, 3-isopropylidenehydrazino-5,7-ethano-5,6,7,8-tetrahydro-6-pyrido[4,3-c]-pyridazine carboxylic acid ethyl ester]","BP (% change), 2nd day, 6 h",[1]; [4],-21.5%
same,"BP (% change) 2nd day, 24 h",[1]; [5],-23.1%
same,"BP (% change), 1st day, 6 h",[1]; 10 mg/kg per os,-23.1%
same,"BP (% change), 1st day, 24 h","[1]; 10 mg/kg per os, 24 h",-20.5%
same,relation between percentage change of the blood pressure (BP) and the applied dose,[1],1.40
same,"BP (% change) 2nd day, 24 h","[1]; Table II, dose 16.5 μmole/kg",-23.1%
same,Th. E. (therapeutic effectiveness) [Serial No. 3 = 1.0],[1],28.7
same,LD50 at 336 h,[2],300 mg/kg
